Values of other authors in US10029019B1, “Method for mitigating osteoporosis using metallic gold cluster molecules” (priority 2017, dated 2018).

What was measured:
[1] = tested on: RANKL-induced NF-κβ activation; settings: RAW 264.7 monocytes during osteoclast differentiation
BMMs = settings: up to 200 μM in BMMs in vitro

Structure (SMILES): O=C1c2c(O)cccc2C([C@@H]2O[C@H](CO)[C@@H](O)[C@H](O)[C@H]2O)c2cc(CO)cc(O)c21 (stereo partly shown) [Aloin]
- formation of RAW264.7 precursor cells into osteoclasts (RAW264.7 cells): prevent osteoclast differentiation

Structure (SMILES): O=C(/C=C/c1ccc(O)c(O)c1)OCCc1ccccc1 [Caffeic Acid Phenethyl Ester (CAPE), Caffeic Acid Phenethyl Ester]
- RANKL-induced NF-κβ activation [1]: inhibit

Structure (SMILES): [HH] [Hydrogen molecules]
- formation of RAW264.7 precursor cells into osteoclasts (RAW264.7 cells): inhibit

Structure (SMILES): [Cl][La]([Cl])[Cl] [Lanthianum Chloride]
- reduction of gene expression that leads towards osteoclastic differentiation (BMMs): 50%
